{"source": "patent US20180228801A1", "about": "“Method for Enhancing Learning Ability and Memory of Patients with Alzheimer's Disease using Mocetinostat” (National Taiwan Normal University, priority 2017, published 2018)", "key": {"[1]": {"tested_on": "primary hippocampus neurons", "assay": "Cell viability analysis (MTT assay)", "assay_type": "cell-based, mouse (C57BL/6J)", "conditions": "Mus musculus, Neuron; primary hippocampus neurons treated on day 9, viability after 48 hours; read-out: IC50 dose, cell viability", "description": "The method of culturing mouse primary hippocampus neurons follow from a modified method from the prior art (Seibenhener and Wooten, 2012), including: obtaining a 16-18 day old embryo from a C57BL/6J strain pregnant female mouse after euthanasia, obtaining hippocampus tissue of the embryo and digesting the tissue with 0.05% trypsin at 37° C. for 15 minutes, and seeding 3×10^4 cells per well in a 48-well plate coated with Poly-L-lysine (100 μg/mL); wherein the components of the medium includes: Neurobasal Medium® (Gibco™; ThermoFisher Scientific, USA) adding 2% of B-27® Additive (Gibco™; ThermoFisher), 0.5 mM of glutamine (Gibco™; ThermoFisher), 25 μM of glutamate (Sigma-Aldrich, USA), 20 unit/mL of penicillin/streptomycin solution (Gibco™; ThermoFisher Scientific, USA), 1 mM of 4-(2-hydroxyethyl)-1-piperazineethanesulfonic acid) (HEPES) (Sigma-Aldrich), and 1% of heat inactivated Donor Horse Serum (Gibco™; ThermoFisher). […]\n(3-(4,5-Dimethylthiazol-2-yl)-2,5-diphenyltetrazolium bromide, MTT) (Sigma, USA) has an original color of yellow, which is able to carry out a reducing reaction by a succinate dehydrogenase of mitochondria within living cells that breaks the tetrazolium ring thereof so as to form formazan, which has a violet color. […] Finally, the cell viability may be analyzed by detecting the changes of violet color (O.D. 570) by a spectrophotometer. […]"}, "[2]": {"tested_on": "mice with oligomeric Aβ25-35 injected into bilateral hippocampal CA1", "assay": "Elevated Plus Maze Test", "assay_type": "in vivo, mice (C57BL/6J)", "conditions": "Aβ25-35 mice, high dose 0.5 mg/kg i.p. once a day", "description": "(§1) Further, in some embodiments of the present invention, C57BL/6J strain male mice (12 week old) are used as a subject in need. After mice are allowed to adapt to the environment for 6 days, mice are anesthetized with Avertin (0.4 g/kg; purchased from Sigma). The mice are fixed on a stereotactic apparatus for operation, followed by injecting oligomeric Aβ25-35 (10 nM, 3 μL) into bilateral hippocampal CA1 (AP: […] relative to the bregma; ML: ±[…] relative to the midline; DV: […] relative to the skull) on day 7. MGCD0103 and equal volume of vehicle (saline) are intraperitoneal (i.p.) injected once a day from day 8, the day after said operation, for 29 days. On day 24, the Open Field Test is performed; on day 26, the EPM is performed; on day 28, the Y-maze is performed; on days 30 to 36, MWM is performed; and on day 37, mice are euthanized for pathological analysis.\nBy means of observing the mice exploring an unfamiliar environment, and the contradictory and conflicting behavior caused by fear of the animal of highly hanging arms of the maze, the anxiety level of the animal can be determined. […] The total time spent at the open arms for each mouse was recorded by a video tracking system (EthoVision-XT, Noldus)."}, "[3]": {"tested_on": "mice with oligomeric Aβ25-35 injected into bilateral hippocampal CA1", "assay": "Y-Maze Activity Test", "assay_type": "in vivo, mice (C57BL/6J)", "conditions": "Aβ25-35 mice, high dose 0.5 mg/kg i.p. once a day", "description": "as §1, with “On day 24, the Open Field Test is performed; on day 26, the EPM is performed; on day 28, the Y-maze is performed; on days 30 to 36, MWM is performed; and on day 37, mice are euthanized for pathological analysis.” left out\nY-Maze Activity Test is a test that takes advantage of the characteristic that mice tend to explore an unfamiliar environment, so that the short-term spatial memory of mice can be measured by means of a Y-maze module arranged with three arms (35 cm×5 cm×20 cm) formed of white acrylic. The mice are placed in the middle of the three arms of the Y-Maze, and the mice are allowed to freely and spontaneously explore for 8 minutes, wherein one count is recorded when four limbs of the mice completely enter any one of the three arms. […]"}, "[4]": {"tested_on": "acetylated alpha-tubulin", "assay": "Western blot, acetylated alpha-tubulin", "assay_type": "in vivo, mice (C57BL/6J)", "conditions": "chronic i.p. treatment, hippocampus", "description": "as §1"}, "[5]": {"tested_on": "PSD95", "assay": "Western blot, PSD95", "assay_type": "in vivo, mice (C57BL/6J)", "conditions": "hippocampus", "description": "as §1"}, "[6]": {"tested_on": "inactivated GSK3β (pS9)", "assay": "Western blot, inactivated GSK3β (pS9)", "assay_type": "in vivo, mice (C57BL/6J)", "conditions": "Aβ25-35 mice, hippocampus", "description": "as §1"}, "[7]": {"tested_on": "Tau protein at Thr-205", "assay": "Western blot, Tau phosphorylation at Thr-205", "assay_type": "in vivo, mice (C57BL/6J)", "conditions": "Aβ25-35 mice, hippocampus", "description": "as §1"}}, "data": [{"compound": "Nc1ccccc1NC(=O)c1ccc(CNc2nccc(-c3cccnc3)n2)cc1", "note": "[MGCD0103, N-(2-Aminophenyl)-4-[[(4-pyridin-3-ylpyrimidin-2-yl)amino]methyl] benzamide]", "values": [{"measurement": "IC50", "setting": "[1]", "value": "~7", "unit": "µM"}, {"measurement": "time spent in the open arm", "setting": "[2]", "value": "significantly increased"}, {"measurement": "spontaneous alternation rate (short-term memory)", "setting": "[3]", "value": "significantly increased"}, {"measurement": "acetylation level of alpha-tubulin", "setting": "[4]", "value": "significantly improve"}, {"measurement": "expression of PSD95", "setting": "[5]", "value": "no significant difference"}, {"measurement": "expression of inactivated GSK3β (pS9)", "setting": "[6]", "value": "considerably increased"}, {"measurement": "phosphorylation expression of Tau protein at Thr-205", "setting": "[7]", "value": "decreased"}]}]}
